The subject of assay [1] is ERK1/2. Kind of assay: ERK1/2 phosphorylation in ES cells. In kind it is cell-based, mouse. As to conditions: combination of Gö6983 and PD0325901. Here is the method: (§1) E14 ES Cell Cultures. Cells were grown in ES-IMDM media (Lonza, Walkersville, Md.) in a feeder-free condition. ES-IMDM was supplemented with 15% serum, 10^5 U/100 ml of LIF (ESGRO, Millipore, Calif.) and 0.0124% monothioglycerol (MTG; Sigma Aldrich). Cells were grown for 3-5 days with change of medium every day. For inducing differentiation in monolayer culture and to determine the effect of Gö6983 in preventing differentiation, E14 cells were cultured on gelatin-coated plastics for 8 days without LIF. Details of experiments performed at clonal-density are described herein. To maintain E14 cells with Gö6983, serum supplemented ES-IMDM was used in the presence of 5 μM Gö6983 and was passed after every 3-5 days. For all assays involving elucidation of different signaling mechanism responsible for maintenance of pluripotency, cells from a ˜70% confluent ES culture plate were washed two times with 1× phosphate-buffered saline (PBS), trypsinized and plated on a 6-well tissue culture plate and treated with or without LIF or Gö6983 or different inhibitors for ˜10 hours followed by preparation of protein lysates and RNA. The PKCζ knocked-down E14 cells that were generated in this study were maintained in serum supplemented ES-IMDM on gelatin-coated plates in the absence of Gö6983 or LIF or any other inhibitor and passed after 3-5 days. […]

Assay [2] deals with p90Rsk1 (Rsk1). Kind of assay: Phosphorylation of p90Rsk1. In kind it is cell-based, mouse. Particulars: added to Gö6983-treated cells. As to the method: Western Blot Analysis. Whole cell lysates were prepared in SDS-gel loading buffer and resolved by 10% PAGE. The antibodies used for this study included β-actin Clone AC-15 from Sigma; p-STAT3 (Tyr705), p-p44/42 MAPK (tyr202/tyr204), p44/42 MAPK, GSK3β, Phospho Akt (Ser473), Akt, p-NFκβ p65 (Ser536), c-Myc, p-c-Myc (Thr58/Ser62), p-p90RSK (Thr359/Ser363), RSK1, Suz12 (D39F6), and Ezh2 (AC22) from Cell Signaling Technology; STAT3 (C-20), Oct-4 (C-10), Nanog (M-149), PKC α (C-20), PKC βI (C-16), PKC βII (C-18), PKC γ (C-19), PKC δ (C-20), PKC ζ (c-20), p-PKC ζ (Thr 410)-R, p-NFκβ p65 (ser311), and RelA (p65) from Santa Cruz Biotechnology; p-LGL1/LGL2 (S650/S654), SSEA4and H3K4Me3 from Abcam; LGL2 (M06), clone 4G2 from Abnova; β-Catenin from BD Transduction Laboratories, and H3K27Me3 and H3K9Me3 from Millipore.

The test system of assay [3] is E14 ES cells. In words: ES cell differentiation on collagen IV and with retinoic acid. Particulars: absence of LIF. The assay is classed as cell-based, mouse. From the text:
ES Cell Differentiation on Collagen-IV and With Retinoic Acid. To differentiate ES cells in monolayer culture on collagen IV, around 3×10^4 cells per well were transferred to collagen IV-coated 6-well plates (BD Biosciences, Franklin Lakes, N.J.) cultured for 5 days in ES differentiation medium containing DMEM (Invitrogen), 15% FBS (selected for endothelial differentiation, Stem Cell Technologies, Vancouver, BC), sodium pyruvate and L-glutamine with or without LIF and Gö6983, and were recovered by cell dissociation buffer (BD Biosciences, Franklin Lakes, N.J.). For culturing multiple passages with Gö6983 on collagen-IV, the recovered cells were again plated at a density of ˜3×10^4 cells per well and cultured again for 5 days. […] For RA-induced differentiation on monolayer culture, ES cells were treated with all-trans-retinoic acid (Sigma, St. Louis, Mo.) in ethanol at a concentration of 1 μM with or without LIF and Gö6983 for 6 days followed by study of expression of pluripotency markers (by immunofluorescence or western blot or RT-PCR analysis).

The subject of assay [4] is E14 ES cells. In words: ES cell culture in the absence of LIF (undifferentiated state, marker expression). The assay is classed as cell-based, mouse. Particulars: mouse ES cells, without LIF. As to the method:
E14 ES Cell Cultures. Cells were grown in ES-IMDM media (Lonza, Walkersville, Md.) in a feeder-free condition. ES-IMDM was supplemented with 15% serum, 10^5 U/100 ml of LIF (ESGRO, Millipore, Calif.) and 0.0124% monothioglycerol (MTG; Sigma Aldrich). Cells were grown for 3-5 days with change of medium every day. For inducing differentiation in monolayer culture and to determine the effect of Gö6983 in preventing differentiation, E14 cells were cultured on gelatin-coated plastics for 8 days without LIF. Details of experiments performed at clonal-density are described herein. To maintain E14 cells with Gö6983, serum supplemented ES-IMDM was used in the presence of 5 μM Gö6983 and was passed after every 3-5 days. For all assays involving elucidation of different signaling mechanism responsible for maintenance of pluripotency, cells from a ˜70% confluent ES culture plate were washed two times with 1× phosphate-buffered saline (PBS), trypsinized and plated on a 6-well tissue culture plate and treated with or without LIF or Gö6983 or different inhibitors for ˜10 hours followed by preparation of protein lysates and RNA. The PKCζ knocked-down E14 cells that were generated in this study were maintained in serum supplemented ES-IMDM on gelatin-coated plates in the absence of Gö6983 or LIF or any other inhibitor and passed after 3-5 days. For the experiments herein, cells were continuously cultured at least for 5 consecutive passages (>18 days) on gelatin-coated plates without significant differentiation.
Quantitative RT-PCR Analysis. RNA was extracted from different cell samples with TRIZOL reagent (Invitrogen). cDNA was prepared by annealing RNA (1 μg) with 250 ng of a 5:1 mixture of random and oligo(dT) primers heated at 68° C. for 10 minutes. This was followed by incubation with Moloney murine leukemia virus reverse transcriptase (50 units) (Invitrogen, Carlsbad, Calif.) combined with 10 mM DTT, RNasin (PROMEGA, Madison, Wis.), and 0.5 mM dNTPs at 42° C. for 1 hour. Reactions were diluted to a final volume of 100 μl and heat inactivated at 97° C. for 5 minutes. Twenty μl PCR reactions contained 2 μl cDNA, 10 μl SYBR Green Master Mix (Applied Biosystems, Foster City, Calif.) and corresponding primer sets. Relative expression levels were determined from a standard curve of serial dilutions of proliferating ES cell cDNA samples and were normalized to the expression of glyceraldehyde-3-phosphate dehydrogenase (GAPDH). At least three independent experiments were done for each set of data.
Immunostaining. Immunostaining of Oct4, and Nanog expression was performed using standard protocols. Briefly, ES cells were fixed in 4% paraformaldehyde/4% sucrose, permeabilized with 0.1% TRITON X 100 (Sigma). Cells were blocked by adding 1% fish gelatin (Sigma, St. Louis, Mo.) and incubated overnight at 4° C. with 200 μl of primary antibodies. Fluorescent-conjugated secondary antibodies (ALEXA FLUOR 488, and ALEXA FLUOR 568, Molecular Probes, Invitrogen) were used at 1:250 dilutions to visualize cells. Images were captured using a LEICA fluorescence microscope.

Assay [5] deals with Akt. In words: Akt phosphorylation in mESCs. The assay is classed as cell-based, mouse. Here is the method:
as §1

Assay [6] relates to mESCs. In words: Gö6983-mediated inhibition of mESC differentiation in presence of pathway inhibitors. The assay is classed as cell-based, mouse. As to conditions: added to Gö6983 culture. As to the method:
Inhibitors. Gö6983 was purchased from three different companies (Sigma, St. Louis, Mo.; EMD Chemicals Inc.; and Tocris Biosciences) for validation. In all experiments except the concentration profile, Gö6983 was used at 5 μM final concentration. […] Rottlerin (0.1-5 μM), and RO-318425 (0.1-5 μM) were purchased from EMD Chemicals. Jak Inhibitor I (10 μM), PD0325901 (1 μM) and AKT inhibitor IX (10 μM) were from Calbiochem and CHIR99021 (3 μM) was purchased from Stemgent.
E14 ES Cell Cultures. Cells were grown in ES-IMDM media (Lonza, Walkersville, Md.) in a feeder-free condition. ES-IMDM was supplemented with 15% serum, 10^5 U/100 ml of LIF (ESGRO, Millipore, Calif.) and 0.0124% monothioglycerol (MTG; Sigma Aldrich). Cells were grown for 3-5 days with change of medium every day. For inducing differentiation in monolayer culture and to determine the effect of Gö6983 in preventing differentiation, E14 cells were cultured on gelatin-coated plastics for 8 days without LIF. Details of experiments performed at clonal-density are described herein. To maintain E14 cells with Gö6983, serum supplemented ES-IMDM was used in the presence of 5 μM Gö6983 and was passed after every 3-5 days. […]

The subject of assay [7] is PKC β. Further details: key: X^1: PKC β1; X^2: PKC β2. Particulars: X = isoform inhibited; superscript 1 PKC β1, 2 PKC β2; cited from earlier work.
Assay [8] deals with c-Myc. Kind of assay: GSK-3β-mediated phosphorylation of c-Myc at T58. Particulars: added in Gö6983 culture condition. In kind it is cell-based, mouse.

The values that follow come from US8193235B2, “Compositions and methods for establishing and maintaining stem cells in an undifferentiated state” (University of Kansas, priority 2009, dated 2012).

With `O=C(NOC[C@H](O)CO)c1ccc(F)c(F)c1Nc1ccc(I)cc1F` [PD0325901], the ERK1/2 phosphorylation result in assay [1] is “almost completely inhibited”. Besides, the Rsk1 phosphorylation entry in assay [2] is listed as “abolished”. In the case of `N#CC(=C(/N)Sc1ccccc1N)/C(C#N)=C(/N)Sc1ccccc1N` [U0216], in assay [3], the “differentiation of ES cells on collagen IV” value is reported as “failed to block differentiation”. Take `Cn1cc(C2=C(c3c4n(c5ccccc35)CCC(CN)C4)C(=O)NC2=O)c2ccccc21` (stereo not drawn) [Ro-31-8425]: the “ES cell differentiation in the absence of LIF” value (“ES cell differentiation” for short) in assay [4] is on record as “could not prevent differentiation”. With “LIF: cytokine leukemia inhibitory factor, activates STAT3”, the Akt phosphorylation result in assay [5] is reported as “induced”.

Take Jak-Inhibitor-I: the “effect of added inhibitor on Gö6983-mediated inhibition of mESC differentiation / maintenance of self-renewal” value in assay [6] is given as “ineffective”. In the case of `Cn1c2ccccc2c2c3c(c4c5ccccc5n(CCC#N)c4c21)CNC3=O` [Gö6976], in assay [4], the “ES cell differentiation” value is listed as “could not prevent differentiation”. For the same molecule, the “Isoform Specificity β” value in assay [7] is “X^2”. Regarding `CC(=O)c1c(O)c(C)c(O)c(Cc2c(O)c3c(c(C(=O)/C=C/c4ccccc4)c2O)OC(C)(C)C=C3)c1O` [Rottlerin], the “ES cell differentiation” value in assay [4] is listed as “could not prevent differentiation”. On to `Cc1c[nH]c(-c2cnc(NCCNc3ccc(C#N)cn3)nc2-c2ccc(Cl)cc2Cl)n1` [CHIR99021], for which, in assay [8], the c-Myc phosphorylation result is “abolished”. Regarding `CN(C)CCCn1cc(C2=C(c3c[nH]c4ccccc34)C(=O)NC2=O)c2ccccc21` [Bisindolylmaleimide I], in assay [4], the “ES cell differentiation” value was “able to inhibit ES cell differentiation, albeit at a lower efficiency than Gö6983”. Further, the “Isoform Specificity β” value in assay [7] is listed as “X^1”.
